Data as given in US6677376B1, “Non-peptidic cyclophilin binding compounds and their use” (Guilford Pharmaceuticals, Inc., priority 1999, dated 2004).

How the values were obtained:
[1] = test system: dorsal root ganglion (DRG) cells; experiment: Neurite outgrowth in dorsal root ganglion (DRG) explant cultures; type: cell-based, mouse; conditions: for neurotrophic or neuroprotectant activity: assay not specified; for neuronal cell growth/neurite extension (images): compared to control, 48 hrs
Method: FIG. 7: Primary DRG cultures were used to test for neurotrophic, neurite outgrowth promoting, and neuroregenerative activity. Each of the compounds was incubated with cells at a concentration of 1 μM for 48 hours, as detailed in the examples.
Spinal cord and dorsal root ganglion (DRG) cells from adult mice can be isolated by micro-dissection. The spinal cord with attached DRGs from an adult mouse ([…]) is removed. Spinal nerves are cut away using micro-dissection scissors and any excess material is trimmed until the DRG is free. Using sharp micro-dissecting scissors, a transverse cut is made in the peripheral nerve, leaving 1-2 mm attached, and the explant placed into Petri dish and covered with plating media. When finished collecting all DRGs, the spinal nerve is trimmed to about […] in length. Then embed the explant in 30 μL of reduced growth factor Matrigel on a circular coverslip, and place in a […] culture dish. Cover the sensory ganglion explant with 2 mls of media. Compounds, drugs or control solutions are added from 10× stocks, and incubated at 37° C., 5% CO2, 95% humidity for 48 hrs. Wash cultures twice with PBS, and fix with 10% formalin for 30 minutes. Wash the fixed cultures twice with PBS and store refrigerated in PBS.
Place cultures in Block Buffer (5% Horse Serum, 5% Goat Serum, 1% Triton X, PBS pH=7.4) overnight, while rotating, at a temperature of 4° C. Add primary antibody (Beta tubulin, Sigma Chemical Co.) diluted in Block Buffer and incubate overnight at 4° C. Wash 5 times with PBS and apply secondary antibody (Alexa 488 Goat Anti-Mouse) diluted in block buffer. Incubate overnight at 4° C. Wash 5 times with PBS and leave overnight at 4 degrees. Coverslip the cultures and measure total neurite length from the end of the attached spinal nerve. Lengths of all neurites are quantitated and compared to those present in vehicle-treated control DRGs.

spinal motor neurons = experiment: Neuroprotection assay: THA neurotoxicity in spinal cord slice cultures; type: cell-based, Sprague-Dawley rat; conditions: THA 200 μM + compound 10 μM, primary cultures of spinal motor neurons
Method: For each of FIGS. 1-7, the bar graphs represent the number of viable neurons after a specified treatment regimen employed in a neuroprotective activity assay. The cells of the experiments were treated with a control solution, a neurotoxic solution, and neurotoxic+experimental compound solution. The statistical significance, p, is calculated using the standard 2 tailed Student's t test.
Each experiment consisted of two 6-well plates with 5 slices from 4 different animals per well. Media changes were performed every 3 to 4 days. […] The control was an untreated sample with 0.1% DMSO as vehicle. The THA control was a THA treated sample with 0.1% DSMO as vehicle. Two wells were used per condition. One media change with new THA and compounds was performed. […]
Quantification of surviving neurons was performed on a Ziess Axiovert microscope. Neuronal survival was determined by observing an intact neuronal cell body with processes located ventrally of the central canal in each hemisphere. […] Each hemisphere was counted individually. The statistics were performed with StatView software on a minimum of three different experiments per condition and significance was determined as compared to THA control. The percent of protection was determined from the average number of living neurons by the following equation: (drug treatment condition−THA control)/(Untreated control−THA control).

CyP A = CyP A (Homo sapiens, UniProt P62937)
Method: A number of substrates for rotamase are known in the art or can be derived from those known. Typically, the substrate contacts a sample containing a protein with rotamase activity and the conversion of the substrate is detected after a period of time. The method for detecting conversion of the substrate will vary with the particular substrate chosen.
The absorbance at 390 nm versus time is monitored for 90 seconds using a spectrophotometer and the rate constants are determined from the absorbance versus time data files.
While CyP A is used in these examples, other CyP proteins can be substituted.

Sequence of CyP A (P62937 whole entry): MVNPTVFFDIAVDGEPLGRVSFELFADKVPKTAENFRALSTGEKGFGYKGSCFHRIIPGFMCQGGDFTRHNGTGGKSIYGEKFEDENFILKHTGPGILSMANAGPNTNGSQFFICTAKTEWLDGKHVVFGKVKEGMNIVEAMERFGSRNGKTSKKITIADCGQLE

Row | Compound | neurotrophic or neuroprotectant activity [1] | neuronal cell growth/neurite extension (images) [1] | neuroprotective activity (number of viable neurons) (spinal motor neurons) | also measured
1 | O=C(NCc1cccc2ccccc12)c1cccc(NC(=O)c2cc(Cl)cc(Cl)c2)c1 [Compound 16, {3-[(3,5-dichlorophenyl)carbonylamino]phenyl}-N-(naphthylmethyl) formamide] |  |  |  | melting point: 205 to 208 °C
2 | O=C(Nc1ccccc1)Nc1cc(NC(=O)Nc2ccccc2)cc(C(F)(F)F)c1 [Compound 7] | possess neurotrophic or neuroprotectant activity | increase in neuronal cell growth/neurite extension |  | 
3 | cyclosporin A [reference compound] |  |  | maintains neuronal viability | 
4 | CSc1ccc(Cl)cc1C(=O)Nc1cccc(NC(=O)c2cc(Cl)ccc2SC)c1 [Compound 6] | possess neurotrophic or neuroprotectant activity | increase in neuronal cell growth/neurite extension |  | 
5 | O=C(Nc1ccc(I)cc1)Nc1cc(NC(=O)Nc2ccc(I)cc2)c(Br)cc1Br [Compound 3] |  | increase in neuronal cell growth/neurite extension | displays neuroprotective activity | 
6 | N#Cc1cccc(NC(=O)NCc2cccc(CNC(=O)Nc3cccc(C#N)c3)c2)c1 [Compound 32] |  |  |  | % Inhibition at 10 μM (CyP A): None detected
